Among the test systems are A549; ACHN; CAKI-1; HL-60; HT-29; IGROV-1; KM12; LOX IMVI; MCF7; Malme-3M; NCI/ADR-RES; PC-3; SF-295; SF-539; SR; T47D; TK-10; U-251.
What all share (experiment): inhibition of tumour cell growth, NCI panel, 48 h

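All cell lines were grown in 96-well plates and treated with compound for 48 hours. GI50: concentration for 50% inhibition of growth.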 Activity calls are given as the source filed them. Rule as the data show it: active = GI50 up to about 1.1 µM and inactive = higher. Residues, ends and D or L forms follow the SMILES beside them.

For the compound `CN1CCN(c2ccc([N+](=O)[O-])c3no[n+]([O-])c23)CC1`, the GI50 in the test on A549 is 0.207 µM (active); in the test with ACHN it was 0.0395 µM (active); with CAKI-1, 0.032 µM (active); with HL-60, 0.0366 µM (active); in the test with HT-29, 0.18 µM (active); with IGROV-1, 0.0719 µM (active). In addition, the GI50 in the test with KM12 was 0.098 µM (active); in the test on LOX IMVI, 0.0485 µM (active); in the test on MCF7, 0.0817 µM (active); with Malme-3M, 0.16 µM (active); in the test on NCI/ADR-RES it was 0.161 µM (active); in the test on PC-3, 0.557 µM (active). In addition, the GI50 with SF-295 was 0.0424 µM (active); in the test with SF-539, 0.0652 µM (active); in the test on SR it was < 0.01 µM (active); in the test on T47D it was 0.0661 µM (active); with TK-10 it was 0.792 µM (active); in the test with U-251, 0.097 µM (active).
As for `COc1ccc(C2c3cc4c(cc3OC(N3CCOCC3)C2C)OCO4)c(OC)c1` (stereo not drawn), the GI50 in the test on A549 is 7.43 µM (inactive); in the test on ACHN, 9.48 µM (inactive); in the test with CAKI-1 it was 4.47 µM (inactive); in the test with HL-60, 2.7 µM (inactive); with HT-29, 3.48 µM (inactive); in the test with IGROV-1, 7.59 µM (inactive). Moreover, the GI50 in the test with KM12 is 4.94 µM (inactive); in the test with LOX IMVI, 4.27 µM (inactive); with MCF7 it was 4.59 µM (inactive); in the test on Malme-3M, 5.11 µM (inactive); with NCI/ADR-RES, 2.71 µM (inactive); in the test with PC-3, 7.6 µM (inactive). The GI50 is 3.48 µM (inactive) in the test with SF-295; 3.05 µM (inactive) in the test with SF-539; 4.21 µM (inactive) in the test on SR; 5.83 µM (inactive) in the test with T47D; 7.78 µM (inactive) with TK-10; 4.09 µM (inactive) in the test with U-251.
For `CC(=O)c1ccc2c(c1)CC1(C2)Cc2ccc3c(c2C1=O)CCC3` (stereo not drawn), the GI50 in the test with A549 is 23.4 µM (inactive); in the test with ACHN, 27.7 µM (inactive); with CAKI-1 it was 23.2 µM (inactive); in the test with HL-60, 8.26 µM (inactive); with HT-29, 15.2 µM (inactive); in the test with IGROV-1 it was 55.2 µM (inactive). Further, the GI50 is 28.2 µM (inactive) with KM12; 24.5 µM (inactive) in the test on LOX IMVI; 22.5 µM (inactive) in the test on MCF7; 18 µM (inactive) with Malme-3M; 20.1 µM (inactive) in the test on NCI/ADR-RES; 21.6 µM (inactive) with PC-3. The GI50 in the test with SF-295 is 31 µM (inactive); in the test on SF-539 it was 27.7 µM (inactive); with SR it was 65.5 µM (inactive); in the test with T47D, 12.5 µM (inactive); with TK-10, 24 µM (inactive); with U-251 it was 34.8 µM (inactive).
Take `CC(NC(=O)c1ccccc1)(C(=O)O)C(=O)O`: the GI50 in the test with A549, in the test on ACHN, with CAKI-1, in the test with HL-60, in the test on HT-29 and with IGROV-1 was > 100 µM (inactive) in each case. The GI50 in the test on KM12, in the test with LOX IMVI, with MCF7, with Malme-3M, in the test with NCI/ADR-RES and in the test on PC-3 was > 100 µM (inactive) in each case. The GI50 with SF-295, in the test with SF-539, in the test with SR, with T47D, in the test with TK-10 and in the test with U-251 was > 100 µM (inactive) in each case.
On to `CC1(C)CCCCCC(C)(CCCCCCCCCCCO)C1=O` (stereo not drawn), for which the GI50 in the test on A549 is 15.1 µM (inactive); in the test on ACHN it was 12.8 µM (inactive); with CAKI-1 it was 15.1 µM (inactive); with HL-60 it was 14.7 µM (inactive); in the test with HT-29, 11.9 µM (inactive); in the test on IGROV-1, 18.2 µM (inactive). The GI50 in the test on KM12 was 18.1 µM (inactive); with LOX IMVI, 15.4 µM (inactive); in the test with MCF7, 16.1 µM (inactive); with Malme-3M it was 16 µM (inactive); with NCI/ADR-RES it was 14 µM (inactive); in the test on PC-3, 16.1 µM (inactive). Besides, the GI50 is 15.7 µM (inactive) with SF-295; 16.7 µM (inactive) in the test on SF-539; 1.41 µM (inactive) with SR; 14.6 µM (inactive) with T47D; 12.1 µM (inactive) with TK-10; 17 µM (inactive) in the test with U-251.
With `O=c1c2ccccc2nc(-c2ccccc2)n1O`, the GI50 in the test on A549 was 71.8 µM (inactive); in the test with ACHN, > 100 µM (inactive); in the test on CAKI-1 it was 8.47 µM (inactive); in the test with HL-60 it was 54 µM (inactive); with HT-29, > 100 µM (inactive); with IGROV-1, 56.8 µM (inactive). Moreover, the GI50 was 67 µM (inactive) in the test with KM12; 76.6 µM (inactive) with LOX IMVI; 95.9 µM (inactive) in the test on MCF7; > 100 µM (inactive) in the test on Malme-3M; 32.4 µM (inactive) in the test with NCI/ADR-RES; > 100 µM (inactive) in the test with PC-3. Also, the GI50 is 35.3 µM (inactive) in the test on SF-295; > 100 µM (inactive) in the test on SF-539; 23.3 µM (inactive) in the test on SR; 45.6 µM (inactive) in the test on T47D; > 100 µM (inactive) with TK-10; > 100 µM (inactive) in the test with U-251.
On to `C=C(Cl)C(Cl)(CBr)CCCC(C)(C)Cl` (stereo not drawn), for which the GI50 with A549 is 14.6 µM (inactive); in the test with ACHN it was 6.68 µM (inactive); with CAKI-1 it was 1.99 µM (inactive); in the test with HL-60 it was 1.53 µM (inactive); in the test on HT-29 it was 1.97 µM (inactive); in the test with IGROV-1, 33.3 µM (inactive). Besides, the GI50 in the test with KM12 is 1.7 µM (inactive); with LOX IMVI, 11.9 µM (inactive); in the test on MCF7, 7.1 µM (inactive); in the test with Malme-3M, 18 µM (inactive); with NCI/ADR-RES it was 30.4 µM (inactive); with PC-3 it was 3.25 µM (inactive). Also, the GI50 in the test with SF-295 was 7.55 µM (inactive); in the test with SF-539 it was 2.47 µM (inactive); in the test with SR, > 53 µM (inactive); in the test with T47D it was 1.8 µM (inactive); in the test with TK-10, 2.26 µM (inactive); with U-251 it was 2.11 µM (inactive).
Take `O=Cc1[nH]c(=O)[nH]c(=O)c1CCl`: the GI50 in the test on A549 is > 100 µM (inactive); with ACHN, > 83 µM (inactive); in the test with CAKI-1 it was > 100 µM (inactive); in the test with HL-60, 38 µM (inactive); in the test with HT-29, > 88.9 µM (inactive); in the test on IGROV-1, > 100 µM (inactive). The GI50 with KM12 was > 100 µM (inactive); in the test on LOX IMVI, 30 µM (inactive); with MCF7, > 65.8 µM (inactive); with Malme-3M, > 100 µM (inactive); in the test with NCI/ADR-RES, > 100 µM (inactive); with PC-3 it was > 100 µM (inactive). In addition, the GI50 was > 100 µM (inactive) in the test with SF-295; > 63.2 µM (inactive) with SF-539; 30.6 µM (inactive) in the test with SR; > 100 µM (inactive) with T47D; > 100 µM (inactive) in the test on TK-10; > 61 µM (inactive) in the test with U-251.
Consider `CC(=O)NC(CO)C(=O)NC(Cc1ccc(O)cc1)C(=O)NCC(N)=O` (stereo not drawn) (Ac-Ser-Tyr-Gly-NH2; configuration not given here), for which the GI50 in the test on A549, in the test on ACHN, with CAKI-1, in the test on HL-60, in the test on HT-29 and in the test on IGROV-1 was > 100 µM (inactive) each time. Further, the GI50 with KM12, in the test with LOX IMVI, in the test with MCF7, with Malme-3M, in the test with NCI/ADR-RES and with PC-3 was > 100 µM (inactive) throughout. The GI50 in the test with SF-295, in the test on SF-539, in the test on SR, in the test with T47D, in the test with TK-10 and with U-251 was > 100 µM (inactive) in each case.
`CC(C)=C=CC(C)(C)NS(=O)(=O)NC(C)(C)C=C=C(C)C`: the GI50 was 42.1 µM (inactive) in the test on A549; > 100 µM (inactive) in the test on ACHN; > 100 µM (inactive) with CAKI-1; 28.2 µM (inactive) in the test with HL-60; 75.5 µM (inactive) in the test on HT-29; > 100 µM (inactive) in the test on IGROV-1. The GI50 in the test with KM12 was > 100 µM (inactive); in the test with LOX IMVI, > 100 µM (inactive); with MCF7 it was > 100 µM (inactive); with Malme-3M, > 100 µM (inactive); with NCI/ADR-RES it was > 100 µM (inactive); in the test on PC-3, 81.1 µM (inactive). Further, the GI50 with SF-295 was > 100 µM (inactive); in the test on SF-539, > 100 µM (inactive); in the test on SR, 18.4 µM (inactive); in the test with T47D it was 15.7 µM (inactive); with TK-10, > 100 µM (inactive); with U-251, > 100 µM (inactive).
Turning to `CC1(CNCc2ccccc2)CC(CCc2ccccc2)N(C(=O)c2ccc([N+](=O)[O-])cc2)C1Cc1ccc(O)cc1` (stereo not drawn), the GI50 in the test on A549 was 10.4 µM (inactive); in the test with ACHN, 12 µM (inactive); with CAKI-1 it was 12.9 µM (inactive); in the test on HL-60 it was 11.3 µM (inactive); in the test on HT-29, 5.65 µM (inactive); in the test with IGROV-1, 15 µM (inactive). Besides, the GI50 in the test with KM12 is 15.6 µM (inactive); in the test on LOX IMVI it was 12.6 µM (inactive); in the test on MCF7 it was 5.24 µM (inactive); with Malme-3M, 19.2 µM (inactive); in the test with NCI/ADR-RES, 14.7 µM (inactive); in the test on PC-3, 10.7 µM (inactive). Also, the GI50 in the test with SF-295 was 11.2 µM (inactive); in the test on SF-539, 17.1 µM (inactive); in the test on SR, 6.75 µM (inactive); in the test with T47D it was 5.32 µM (inactive); in the test on TK-10 it was 16.4 µM (inactive); with U-251, 12.3 µM (inactive).

(Values after ChEMBL document CHEMBL1201862, “PubChem BioAssay data set” (2004).)
